Data reported in patent US8759342B2, “Benzo[1,4]oxazin-3-one, benzo[1,4]thiazin-3-one and quinolin-2-one urotensin II receptor antagonists” (Janssen Pharmaceutica NV, priority 2006, dated 2014).

Target: T1, rat GPR14 (U-II receptor) (Rattus norvegicus, UniProt P49684)
T1 construct: expressed in transfected cells
T1 sequence (P49684 1-386): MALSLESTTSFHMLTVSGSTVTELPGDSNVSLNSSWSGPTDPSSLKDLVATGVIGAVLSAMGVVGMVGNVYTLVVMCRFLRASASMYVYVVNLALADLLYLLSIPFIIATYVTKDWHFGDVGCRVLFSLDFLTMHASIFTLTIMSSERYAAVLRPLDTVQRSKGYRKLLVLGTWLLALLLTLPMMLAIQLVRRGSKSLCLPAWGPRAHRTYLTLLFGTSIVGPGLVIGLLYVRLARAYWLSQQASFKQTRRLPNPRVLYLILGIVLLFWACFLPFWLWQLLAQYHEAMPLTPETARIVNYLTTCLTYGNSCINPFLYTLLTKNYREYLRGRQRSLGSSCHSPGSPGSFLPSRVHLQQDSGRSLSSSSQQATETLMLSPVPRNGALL
Experiment: Calcium flux assay (FLIPR)
Type: cell-based
Details: Inhibition of acetyl-cyclic[Cys-Phe-Trp-Lys-(2-Nal)-Cys]-NH2 (1 nM) induced Ca2+ mobilization (FLIPR) in CHO cells transfected with rat UII receptor; 5 min incubation
Excerpt: To derive these cells, the complete coding sequence of rat […] was amplified by nested PCR from rat heart marathon-Ready cDNA. […] The PCR products were cloned into pcDNA3 (Invitrogen) digested with EcoR I and Xba I. Clones containing rat U-II receptor were verified by complete sequencing of the U-II receptor insert to ensure a lack of PCR-introduced errors. The constructed vector was transfected into CHO cells by using lipofectamine (GIBCO BRL). CHO cells with high expression of rat U-II receptor were selected and established as stable cell lines by using G418. CHO cells were seeded at 25,000 cells per well into 96-well, black-wall, clear-bottom microtiter plates 24 hrs before assay. Cells in culture media (DMEM/F12 containing 15 mM HEPES, L-glutamine, pyridoxine hydrochloride; 10% fetal bovine serum; 1 mg/mL G418 sulfate; antibiotic-antimycotic; pH 7.4) were loaded with proprietary dye, from the FLIPR Calcium Assay Kit (Molecular Devices), prepared in assay buffer (Hanks Balanced Salts Solution, 20 mM HEPES, 0.1% BSA, 2.5 mM probenecid, pH 7.4), and incubated for 1 hr at 37° C. Calcium mobilization determinations were performed at room temperature (23° C.).

SMILES	IC50
O=C(NCCc1cccs1)c1ccccc1C1CCN(CCN2C(=O)COc3ccccc32)CC1 [Cpd 47, 2-{1-[2-(3-oxo-2,3-dihydro-benzo[1,4]oxazin-4-yl)-ethyl]-piperidin-4-yl}-N-(2-thiophen-2-yl-ethyl)-benzamide]	7 µM
COCCCNC(=O)c1ccccc1C1CCN(CCN2C(=O)COc3ccccc32)CC1 [Cpd 37, N-(3-methoxy-propyl)-2-{1-[2-(3-oxo-2,3-dihydro-benzo[1,4]oxazin-4-yl)-ethyl]-piperidin-4-yl}-benzamide]	30 µM
O=C1COc2ccccc2N1CCN1CCC(C(=O)NCCCc2ccccc2)(c2ccccc2)CC1 [Cpd 107, 1-[2-(3-oxo-2,3-dihydro-benzo[1,4]oxazin-4-yl)-ethyl]-4-phenyl-piperidine-4-carboxylic acid (3-phenyl-propyl)-amide]	9.1 µM
CC(C)(C)OC(=O)NCCCCCNC(=O)c1ccccc1C1CC2CCC(C1)N2CCN1C(=O)COc2ccccc21 (stereo not shown) [Cpd 97, [5-(2-{8-[2-(3-oxo-2,3-dihydro-benzo[1,4]oxazin-4-yl)-ethyl]-8-aza-bicyclo[3.2.1]oct-3-yl}-benzoylamino)-pentyl]-carbamic acid tert-butyl ester]	5.4 µM
COc1cc(CCNC(=O)c2ccccc2C2CCN(CCN3C(=O)COc4ccccc43)CC2)cc(OC)c1 [Cpd 17, N-[2-(3,5-dimethoxy-phenyl)-ethyl]-2-{1-[2-(3-oxo-2,3-dihydro-benzo[1,4]oxazin-4-yl)-ethyl]-piperidin-4-yl}-benzamide]	7 µM
O=C(NCC1CC1)c1ccccc1C1CCN(CCN2C(=O)COc3ccccc32)CC1 [Cpd 24, N-cyclopropylmethyl-2-{1-[2-(3-oxo-2,3-dihydro-benzo[1,4]oxazin-4-yl)-ethyl]-piperidin-4-yl}-benzamide]	12 µM
O=C1COc2ccccc2N1CCN1CCC(C(=O)NCCc2ccccc2)(c2ccc(Cl)cc2)CC1 [Cpd 109, 4-(4-chloro-phenyl)-1-[2-(3-oxo-2,3-dihydro-benzo[1,4]oxazin-4-yl)-ethyl]-piperidine-4-carboxylic acid phenethyl-amide]	5 µM
O=C1COc2ccccc2N1CCN1CCC(c2ccccc2)CC1 [Cpd 86, 4-[2-(4-phenyl-piperidin-1-yl)-ethyl]-4H-benzo[1,4]oxazin-3-one]	24 µM
COc1ccc(CCNC(=O)c2ccccc2C2CCN(CCN3C(=O)COc4ccccc43)CC2)cc1 [Cpd 14, N-[2-(4-methoxy-phenyl)-ethyl]-2-{1-[2-(3-oxo-2,3-dihydro-benzo[1,4]oxazin-4-yl)-ethyl]-piperidin-4-yl}-benzamide]	4 µM
O=C1COc2ccccc2N1CCN1CCC(c2ccccc2F)CC1 [Cpd 89, 4-{2-[4-(2-fluoro-phenyl)-piperidin-1-yl]-ethyl}-4H-benzo[1,4]oxazin-3-one]	23 µM
O=C(NCCc1ccncc1)c1ccccc1C1CCN(CCN2C(=O)COc3ccccc32)CC1 [Cpd 45, 2-{1-[2-(3-oxo-2,3-dihydro-benzo[1,4]oxazin-4-yl)-ethyl]-piperidin-4-yl}-N-(2-pyridin-4-yl-ethyl)-benzamide]	16 µM
O=C(NCCc1ccccn1)c1ccccc1C1CCN(CCN2C(=O)COc3ccccc32)CC1 [Cpd 42, 2-{1-[2-(3-oxo-2,3-dihydro-benzo[1,4]oxazin-4-yl)-ethyl]-piperidin-4-yl}-N-(2-pyridin-2-yl-ethyl)-benzamide]	20 µM
CC1C=C(c2ccc(Cl)cc2C(=O)NCCCCCNC(=O)OC(C)(C)C)CC(C)N1CCN1C(=O)COc2ccccc21 (stereo not shown) [Cpd 102, [5-(5-chloro-2-{2,6-dimethyl-1-[2-(3-oxo-2,3-dihydro-benzo[1,4]oxazin-4-yl)-ethyl]-1,2,3,6-tetrahydro-pyridin-4-yl}-benzoylamino)pentyl]-carbamic acid tert-butyl ester]	7.6 µM
O=C(NCCNC(=O)c1ccccc1C1CCN(CCN2C(=O)COc3ccccc32)CC1)Nc1ccc2ccccc2c1 [Cpd 54, N-[2-(3-naphthalen-2-yl-ureido)-ethyl]-2-{1-[2-(3-oxo-2,3-dihydro-benzo[1,4]oxazin-4-yl)-ethyl]-piperidin-4-yl}-benzamide]	7 µM
CC(=O)NCCNC(=O)c1ccccc1C1CCN(CCN2C(=O)COc3ccccc32)CC1 [Cpd 49, N-(2-acetylamino-ethyl)-2-{1-[2-(3-oxo-2,3-dihydro-benzo[1,4]oxazin-4-yl)-ethyl]-piperidin-4-yl}-benzamide]	38 µM
COc1ccccc1CCNC(=O)c1ccccc1C1CCN(CCN2C(=O)COc3ccccc32)CC1 [Cpd 15, N-[2-(2-methoxy-phenyl)-ethyl]-2-{1-[2-(3-oxo-2,3-dihydro-benzo[1,4]oxazin-4-yl)-ethyl]-piperidin-4-yl}-benzamide]	8 µM
O=C(NCc1cccnc1)c1ccccc1C1CCN(CCN2C(=O)COc3ccccc32)CC1 [Cpd 43, 2-{1-[2-(3-oxo-2,3-dihydro-benzo[1,4]oxazin-4-yl)-ethyl]-piperidin-4-yl}-N-pyridin-3-ylmethyl-benzamide]	18 µM
O=C(NCCCO)c1ccccc1C1CCN(CCN2C(=O)COc3ccccc32)CC1 [Cpd 39, N-(3-hydroxy-propyl)-2-{1-[2-(3-oxo-2,3-dihydro-benzo[1,4]oxazin-4-yl)-ethyl]-piperidin-4-yl}-benzamide]	32 µM
O=C(NC1CCc2ccccc21)c1ccccc1C1CCN(CCN2C(=O)COc3ccccc32)CC1 (stereo not shown) [Cpd 27, N-indan-1-yl-2-{1-[2-(3-oxo-2,3-dihydro-benzo[1,4]oxazin-4-yl)-ethyl]-piperidin-4-yl}-benzamide]	43 µM
CC(CCc1ccccc1)NC(=O)c1ccccc1C1CCN(CCN2C(=O)COc3ccccc32)CC1 (stereo not shown) [Cpd 25, N-(1-methyl-3-phenyl-propyl)-2-{1-[2-(3-oxo-2,3-dihydro-benzo[1,4]oxazin-4-yl)-ethyl]-piperidin-4-yl}-benzamide]	4 µM
O=C(NCCc1ccc(Cl)cc1Cl)c1ccccc1C1CCN(CCN2C(=O)COc3ccccc32)CC1 [Cpd 7, N-[2-(2,4-dichloro-phenyl)-ethyl]-2-{1-[2-(3-oxo-2,3-dihydro-benzo[1,4]oxazin-4-yl)-ethyl]-piperidin-4-yl}-benzamide]	19 µM
O=C(NCCCN1CCCC1=O)c1ccccc1C1CCN(CCN2C(=O)COc3ccccc32)CC1 [Cpd 51, 2-{1-[2-(3-oxo-2,3-dihydro-benzo[1,4]oxazin-4-yl)-ethyl]-piperidin-4-yl}-N-[3-(2-oxo-pyrrolidin-1-yl)-propyl]-benzamide]	22 µM
O=C(NCCCn1ccnc1)c1ccccc1C1CCN(CCN2C(=O)COc3ccccc32)CC1 [Cpd 48, N-(3-imidazol-1-yl-propyl)-2-{1-[2-(3-oxo-2,3-dihydro-benzo[1,4]oxazin-4-yl)-ethyl]-piperidin-4-yl}-benzamide]	43 µM
CN(CCc1ccccc1)C(=O)c1ccccc1C1CCN(CCN2C(=O)COc3ccccc32)CC1 [Cpd 18, N-methyl-2-{1-[2-(3-oxo-2,3-dihydro-benzo[1,4]oxazin-4-yl)-ethyl]-piperidin-4-yl}-N-phenethyl-benzamide]	15 µM
O=C(NCCCCCNC(=O)c1cc(Cl)ccc1C1CCN(CCN2C(=O)COc3ccccc32)CC1)Nc1ccccc1 [Cpd 81, 5-chloro-2-{1-[2-(3-oxo-2,3-dihydro-benzo[1,4]oxazin-4-yl)-ethyl]-piperidin-4-yl}-N-[5-(3-phenyl-ureido)-pentyl]-benzamide]	0.53 µM
